Drawing on patent US6117888A, “Thrombin inhibitors” (Merck & Co., Inc., priority 1999, dated 2000), this text covers Ki for five compounds.

The target of this test is human α-thrombin (Homo sapiens, UniProt P00734). Nature of the test: In vitro assay for determining proteinase inhibition, human α-thrombin. In kind it is biochemical. As to the method: The assays were carried out at 25° C. in 0.05 M TRIS buffer pH 7.4, 0.15 M NaCl, 0.1% PEG. Trypsin assays also contained 1 mM CaCl2.
Concentrations of stock solutions of Z-GPR-afc were determined from measurements of absorbance at 380 nm of the 7-amino-4-trifluoromethyl coumarin produced upon complete hydrolysis of an aliquot of the stock solution by thrombin.
Times required to achieve equilibration between enzyme and inhibitor were determined in control experiments. Initial velocities of product formation in the absence (Vo) or presence of inhibitor (Vi) were measured. Assuming competitive inhibition, and that unity is negligible compared Km /[S], […] (where [S], [I], and e respectively represent the total concentrations, of substrate, inhibitor and enzyme), the equilibrium constant (Ki) for dissociation of the inhibitor from the enzyme can be obtained from the dependence of Vo /Vi on [I] shown in equation 1.

Where [1] appears, read: thrombin, 25° C., 0.05 M TRIS buffer pH 7.4, 0.15 M NaCl, 0.1% PEG, read-out: Inhibitory activity, Ki.

Read-outs that look alike come from different tables or passages of the source.

Consider `Cc1nc(N)ccc1CNC(=O)Cn1c(C)cc(S(=O)(=O)N2CCCC2)c(N)c1=O`, for which, under setting [1], the Ki (commonly the equilibrium dissociation constant of an inhibitor or competing ligand from its target) was under 5 nM. `Cc1nc(N)ccc1CNC(=O)Cn1c(C)cc(S(=O)(=O)NCC2CCC2)c(N)c1=O` returned a Ki of under 5 nM. Regarding `Cc1nc(N)ccc1CNC(=O)Cn1c(C)cc2c(c1=O)NCC(c1ccccc1)S2(=O)=O` (centres unmarked), the inhibition constant (Ki) under setting [1] was over 5 nM. Consider `Cc1nc(N)ccc1CNC(=O)Cn1c(C)cc2c(c1=O)NCN(CC1CC1)S2(=O)=O`, for which the Ki was under 5 nM. For the compound `Cc1nc(N)ccc1CNC(=O)Cn1c(C)cc2c(c1=O)NCCS2(=O)=O`, the Ki under setting [1] is over 5 nM.
